Source: US9540396B2, “6-arylamino pyridone carboxamide as MEK inhibitors” (Centaurus Biopharma Co., Ltd., priority 2010, dated 2017)

Assays:
MEK1 kinase = MEK1 kinase (Homo sapiens (Human), UniProt Q02750); assay: MEK1 kinase enzymatic activity assay (Kinase Glo plus luminescence); type: biochemical; conditions: 60 minutes at 22 degree
Procedure: The Kinase Glo plus assay kit was purchased from Promega. The substrate, APT, DTT, and dimethylsulfoxide were purchased from Sigma-Aldrich.
The MAP2K1 (MEK1) kinase, Europium labeled Antibody, Tracer 236 and binding buffer A were purchased from Invitrogen.
Determination of Enzymatic Activity:
Compounds were diluted from DMSO stocks into 1× buffer (20 mM MOPS, PH 7.4, 5 mM MgCl2, 0.5 mM MnCl2, 100 uM Sodium Orthovanadate, 0.01% Triton X-100, 1 mM DTT). A typical reaction assay contained 0.01 nanomoles MEK1 kinase, 0.01 nanomoles ATP, 10 nanograms substrate. The screening assay essentially comprised four additions. 2 ul of diluted compounds were dispensed to 384 well white assay plates. 6 ul of kinase-substrate cocktail was then added to each well. 2 ul 5×ATP was subsequently added to each well to start the reaction. A top seal was applied and the plate was incubated at 22 degree avoiding light for 60 minutes. Finally, 10 ul of the Kinase Glo plus reagent was added to each well to stop the reaction. Incubated at room temperature and avoid light for ten minutes. The top seal was removed and the plate was counted by the EnVision 2104 multi labeled plate reader (PerkinElmer) with a standard luminescent program.

[1] = test system: phosphorylated ERK in Human A375 melanoma cancer cells; assay: AlphaScreen assay for phosphorylated ERK in A375 cells; conditions: A-375, 1 h, compound treatment 60 minutes at 37 degree, phospho-ERK, read-out: IC50 (nM) Cell based
Procedure: The SureFire Phospho-ERK1/2 Assay kit and the AlphaScreen General IgG (Protein A) Detection kit were both purchased from PerkinElmer.
Generation of Cell Based IC50 Data • Effects of compounds in the cell were determined by the AlphaScreen assay for phosphorylated ERK. Human A375 melanoma cancer cells were plated in a 96 wells plate at 80,000 cells per well and grown in a 37 degree humidified CO2 incubator. The following day, cells were treated with a range of compound concentrations for 60 minutes at 37 degree. The cells were then lysed and 4 ul of each lysate were transferred into the 384 well white reaction plate. A cocktail of AlphaScreen beads and buffer was freshly prepared and this mixture was dispensed into each well in a room with low light. A top seal was applied and the plate was incubated at 25 degree avoiding light for two hours. The top seal was removed when the plate was counted by the EnVision multi labeled plate reader (PerkinElmer) with an optimized AlphaScreen program. […] Biological Data for Select Compounds

Chain of MEK1 kinase (Q02750 whole entry): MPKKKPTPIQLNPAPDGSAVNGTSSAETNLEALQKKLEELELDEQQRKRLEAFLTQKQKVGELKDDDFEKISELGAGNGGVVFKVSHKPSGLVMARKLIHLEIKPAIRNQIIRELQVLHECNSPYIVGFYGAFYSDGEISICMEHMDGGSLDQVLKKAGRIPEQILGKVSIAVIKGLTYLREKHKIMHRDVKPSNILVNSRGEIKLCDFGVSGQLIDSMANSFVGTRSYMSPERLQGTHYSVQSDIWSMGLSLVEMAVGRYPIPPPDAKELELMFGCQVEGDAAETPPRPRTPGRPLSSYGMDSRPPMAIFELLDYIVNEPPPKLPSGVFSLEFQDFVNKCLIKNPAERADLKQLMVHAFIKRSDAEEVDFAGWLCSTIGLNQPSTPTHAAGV

SMILES	IC50 (MEK1 kinase) [nM]	IC50 [1] [nM]
Cn1c(Nc2ccc(I)cc2F)c(C(=O)N2CC(O)(C3CCCCN3)C2)c2occc2c1=O (stereo not shown)	< 1000	< 100
Cc1noc2c(C(=O)NOCCO)c(Nc3ccc(I)cc3F)n(C)c(=O)c12	< 10000	< 100
Cn1c(Nc2ccc(I)cc2F)c(C(=O)NCC(O)CO)c2occc2c1=O (stereo not shown)	< 1000	< 100
Cn1c(Nc2ccc(Br)cc2Cl)c(C(=O)NOCCO)c2occc2c1=O	< 1000	< 100
Cn1c(Nc2ccc(I)cc2F)c(C(=O)NC(=O)CO)c2occc2c1=O	< 10000	< 500
Cn1c(Nc2ccc(I)cc2F)c(C(=O)NOCCO)c2ncsc2c1=O	< 1000	< 100
Cn1c(Nc2ccc(Cl)cc2Cl)c(C(=O)NOCCO)c2occc2c1=O	< 10000	< 1000
Cn1c(Nc2ccc(Br)cc2F)c(C(=O)NOCCO)c2occc2c1=O	< 10000	< 100
Cn1c(Nc2ccc(I)cc2F)c(C(=O)NCCCO)c2occc2c1=O	< 10000	< 100
Cn1c(Nc2ccc(I)cc2F)c(C(N)=O)c2occc2c1=O	< 1000	< 100
Cn1c(Nc2ccc(I)cc2Cl)c(C(=O)NCCCO)c2occc2c1=O	< 10000	< 100
CN(C)Cc1cc2c(=O)n(C)c(Nc3ccc(I)cc3F)c(C(=O)NOCCO)c2o1	< 500	< 100
Cc1nc2c(=O)n(C)c(Nc3ccc(I)cc3F)c(C(=O)NOCCO)c2o1	< 1000	< 100
CSc1ccc(Nc2c(C(=O)NOCCO)c3occc3c(=O)n2C)c(Cl)c1	< 1000	< 100
CNc1nc2c(C(=O)NOCCO)c(Nc3ccc(I)cc3F)n(C)c(=O)c2s1	< 500	< 100
Cn1c(Nc2ccc(I)cc2F)c(C(=O)NOCCO)c2scnc2c1=O	< 10000	< 10000

Further lines, results first:

IC50 (MEK1 kinase) [nM]	IC50 [1] [nM]	SMILES
< 100	< 100	CSc1nc2c(C(=O)NOCCO)c(Nc3ccc(I)cc3Cl)n(C)c(=O)c2s1
< 100	< 100	C[C@@H](CO)ONC(=O)c1c(Nc2ccc(I)cc2F)n(C)c(=O)c2ccoc12
< 500	< 100	Cn1c(Nc2ccc(I)cc2F)c(C(=O)NOCCO)c2oc(CN3CCOCC3)cc2c1=O
< 100	< 100	Cn1c(Nc2ccc(I)cc2Cl)c(C(=O)NOCCO)c2occc2c1=O
< 500	< 100	Cn1c(Nc2ccc(I)cc2F)c(C(=O)NOCCO)c2nc(N)sc2c1=O
< 500	< 100	CSc1nc2c(C(=O)NOCCO)c(Nc3ccc(I)cc3F)n(C)c(=O)c2s1
< 100	< 100	Cn1c(Nc2ccc(I)cc2F)c(C(=O)NOC(C)(C)CO)c2occc2c1=O
< 500	< 100	Cc1cc2c(=O)n(C)c(Nc3ccc(I)cc3F)c(C(=O)NOCCO)c2o1
< 500	< 100	COCCONC(=O)c1c(Nc2ccc(I)cc2F)n(C)c(=O)c2ccoc12
< 500	< 100	Cn1c(Nc2ccc(I)cc2F)c(C(=O)NOCCO)c2sccc2c1=O
< 500	< 100	Cc1coc2c(C(=O)NOCCO)c(Nc3ccc(I)cc3F)n(C)c(=O)c12
< 500	< 100	Cc1coc2c(C(=O)NOCCO)c(Nc3ccc(I)cc3Cl)n(C)c(=O)c12
< 100	< 100	Cn1c(Nc2ccc(I)cc2F)c(C(=O)NOCC2CC2)c2occc2c1=O
< 500	< 100	Cc1cc2c(=O)n(C)c(Nc3ccc(I)cc3F)c(C(=O)NOC[C@H](O)CO)c2o1
< 500	< 100	CSc1ccc(Nc2c(C(=O)NOCCO)c3occc3c(=O)n2C)c(F)c1
< 500	< 100	CCONC(=O)c1c(Nc2ccc(I)cc2F)n(C)c(=O)c2ccoc12
< 500	< 100	CONC(=O)c1c(Nc2ccc(I)cc2F)n(C)c(=O)c2ccoc12
< 100	< 100	Cn1c(Nc2ccc(I)cc2F)c(C(=O)NOCCO)c2occc2c1=O
< 500	< 100	Cc1nc2c(C(=O)NOCCO)c(Nc3ccc(I)cc3F)n(C)c(=O)c2s1
< 100	< 100	C[C@H](O)CONC(=O)c1c(Nc2ccc(I)cc2F)n(C)c(=O)c2ccoc12
< 100	< 100	Cn1c(Nc2ccc(I)cc2F)c(C(=O)NOC[C@H](O)CO)c2occc2c1=O
< 100	< 100	CC[C@H](O)CONC(=O)c1c(Nc2ccc(I)cc2F)n(C)c(=O)c2ccoc12
